Laboratory results from PubChem BioAssay (NCI).
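Tested at 5 concentrations; 48 h exposure; 96-well plates; endpoints linearly interpolated, else capped at highest concentration. Here, GI50 denotes the concentration required for 50% inhibition of growth. TGI: concentration producing complete growth inhibition.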

Columns and labels:
Assay in all cases: NCI-60 cell line screen, 48 h
NCI-H522 lung = system: NCI-H522 lung
SK-MEL-5 melanoma = system: SK-MEL-5 melanoma
OVCAR-5 ovarian = system: OVCAR-5 ovarian
SK-MEL-28 melanoma = system: SK-MEL-28 melanoma
HCT-15 colon = system: HCT-15 colon
SF-539 CNS = system: SF-539 CNS
TK-10 renal = system: TK-10 renal
MDA-MB-231 breast = system: MDA-MB-231 breast

Row | Compound | GI50 (NCI-H522 lung) [µM] | TGI (NCI-H522 lung) [µM] | GI50 (SK-MEL-5 melanoma) [µM] | TGI (SK-MEL-5 melanoma) [µM] | GI50 (OVCAR-5 ovarian) [µM] | TGI (OVCAR-5 ovarian) [µM] | GI50 (SK-MEL-28 melanoma) [µM] | TGI (SK-MEL-28 melanoma) [µM] | GI50 (HCT-15 colon) [µM] | TGI (HCT-15 colon) [µM] | GI50 (SF-539 CNS) [µM] | TGI (SF-539 CNS) [µM] | GI50 (TK-10 renal) [µM] | TGI (TK-10 renal) [µM] | GI50 (MDA-MB-231 breast) [µM] | TGI (MDA-MB-231 breast) [µM]
1 | COc1ccc(-c2cc(-c3ccc(O)cc3)nc3n[nH]c(N)c23)cc1 | 14.5 | 33.6 | 15.1 | 28.8 | 15.1 | 48.2 | 33.6 | > 100 | 25.9 | 95 | 14.7 | 28.6 | 29.8 | > 100 | 14.9 | 50.3
2 | N#CS.N=C=S.N=C=S.[Cu+2].[NH2-].[NH2-].[NH2-].[NH2-].c1ccc2ncccc2c1 | 44.8 | > 100 | 17.8 | 38.7 | 21.6 | 41 | > 100 | > 100 | > 100 | > 100 | > 100 | > 100 | 90 | > 100 | 38.7 | 84.2
3 | CCCCCCc1nc2nc(Cl)c(Cl)nc2[nH]1 | 2.73 | 26.8 | 2.61 | > 100 | > 100 | > 100 | > 100 | > 100 | 5.06 | > 100 | > 100 | > 100 | 9.9 | > 100 | 35.9 | > 100
4 | COc1cccc2c1c(C1=C(c3cn(C)c4ccccc34)C(=O)NC1=O)cn2C | > 25 | > 25 | > 25 | > 25 | > 25 | > 25 | > 25 | > 25 | > 25 | > 25 | > 25 | > 25 | > 25 | > 25 | > 25 | > 25
5 | O=C(CCC(C(=O)c1ccccc1)c1ccccc1)c1ccccc1 (stereo not given) | 2.64 | 8.98 | 9.29 | 34.3 | 80.4 | > 100 | 55.7 | > 100 | 4.92 | > 100 | 52 | > 100 | 38.6 | > 100 | 23.4 | > 100
6 | CCCCCCCCCCCCCCCCOP(=O)(O)OP(=O)(O)OCC1OC(n2ccc(N)nc2=O)C(O)C1O (stereo not given) | > 100 | > 100 | – | > 100 | – | > 100 | – | > 100 | – | > 100 | – | > 100 | – | > 100 | – | > 100
7 | O=C(Nc1nc2ccc(F)cc2s1)c1cccnc1Nc1ccc(Cl)cc1 | 2.17 | > 24.2 | 1.39 | 3.38 | 2.64 | > 61.1 | 3.47 | > 79.3 | 2.74 | > 100 | 2.89 | > 27.9 | 5.11 | > 100 | 1.88 | 5
8 | O=c1c2c3c(sc2nc(N/N=C/c2ccc(Br)cc2)n1Cc1ccccc1)CCCC3 | 7.21 | > 100 | 5.88 | > 100 | > 100 | > 100 | > 100 | > 100 | 8.98 | > 100 | 10.8 | > 100 | 39.9 | > 100 | 48 | > 100
9 | CCCCCCCCCCCCOC1C(C(CC(=O)N2CCN(c3cccc(C(F)(F)F)c3)CC2)NS(=O)(=O)c2cc(Cl)cc(Cl)c2)OC2OC(C)(C)OC21 (stereo not given) | > 100 | > 100 | > 100 | > 100 | > 37.5 | > 100 | > 100 | > 100 | > 100 | > 100 | > 100 | > 100 | > 100 | > 100 | > 100 | > 100
10 | O=C(NCc1ccncc1)C12CC3CC(C1)CC(c1ccc(Cl)cc1)(C3)C2 | 13.5 | 28.8 | 5.7 | 18.3 | 14 | 28.7 | 12.7 | 25.5 | 12.1 | 25.2 | 14.1 | 28.1 | 15.3 | 29.5 | 12 | 26.2
11 | C=C(C)[C@@H]1CC[C@]2(CO)CC[C@]3(C)[C@H](CC[C@@H]4[C@@]5(C)CCC(NCCc6ccc(O)cc6)C(C)(C)[C@@H]5CC[C@]43C)[C@@H]12 (stereo not given in full) | 1.72 | 3.33 | 1.47 | 2.8 | 1.59 | 2.96 | 1.58 | 3 | 1.23 | 2.68 | 1.63 | 3.04 | 1.65 | 3.13 | 1.64 | 3.09
12 | CN(C)CCCNC(=O)c1cncnc1Nc1ccc(OCc2cccc(F)c2)c(Cl)c1 | 2 | 3.86 | 1.71 | 3.08 | 1.67 | 3.07 | 1.79 | 3.22 | 1.38 | 2.75 | 1.77 | 3.15 | 1.84 | 3.48 | 1.69 | 3.14
13 | COc1cnc2c(c1)C(=O)c1c-2n(CCCNC(C)C)c(=O)c2cc(F)ccc12 | 0.0385 | 0.376 | 0.156 | 0.496 | 0.277 | 0.856 | 0.94 | 2.51 | 0.163 | 1.32 | 0.245 | 0.703 | 0.178 | 0.623 | 0.402 | 1.57
14 | CC1=C([Te]c2ccc(O)cc2)C(=O)c2ccccc2C1=O | 2.16 | 7.31 | 1.53 | 2.92 | 2.44 | 7.75 | 2.41 | 6.09 | 1.01 | 4.31 | 1.8 | 4.23 | 2.67 | 7.6 | 1.89 | 5.4
15 | CCOC(=O)C(C)(C)C(O)C(C)C (stereo not given) | – | > 100 | – | > 100 | – | > 100 | – | > 100 | – | > 100 | – | > 100 | – | > 100 | – | > 100
